Structures can show the parent of a compound that is named as a salt.
Biological target: T1, TLR7/NFKb HEK cells (Homo sapiens, UniProt Q9NYK1)
T1 construct: expressed in transfected cells; host or cells: HEK cells (TLR7/NFKb reporter line)
T1 sequence (Q9NYK1 27-1049): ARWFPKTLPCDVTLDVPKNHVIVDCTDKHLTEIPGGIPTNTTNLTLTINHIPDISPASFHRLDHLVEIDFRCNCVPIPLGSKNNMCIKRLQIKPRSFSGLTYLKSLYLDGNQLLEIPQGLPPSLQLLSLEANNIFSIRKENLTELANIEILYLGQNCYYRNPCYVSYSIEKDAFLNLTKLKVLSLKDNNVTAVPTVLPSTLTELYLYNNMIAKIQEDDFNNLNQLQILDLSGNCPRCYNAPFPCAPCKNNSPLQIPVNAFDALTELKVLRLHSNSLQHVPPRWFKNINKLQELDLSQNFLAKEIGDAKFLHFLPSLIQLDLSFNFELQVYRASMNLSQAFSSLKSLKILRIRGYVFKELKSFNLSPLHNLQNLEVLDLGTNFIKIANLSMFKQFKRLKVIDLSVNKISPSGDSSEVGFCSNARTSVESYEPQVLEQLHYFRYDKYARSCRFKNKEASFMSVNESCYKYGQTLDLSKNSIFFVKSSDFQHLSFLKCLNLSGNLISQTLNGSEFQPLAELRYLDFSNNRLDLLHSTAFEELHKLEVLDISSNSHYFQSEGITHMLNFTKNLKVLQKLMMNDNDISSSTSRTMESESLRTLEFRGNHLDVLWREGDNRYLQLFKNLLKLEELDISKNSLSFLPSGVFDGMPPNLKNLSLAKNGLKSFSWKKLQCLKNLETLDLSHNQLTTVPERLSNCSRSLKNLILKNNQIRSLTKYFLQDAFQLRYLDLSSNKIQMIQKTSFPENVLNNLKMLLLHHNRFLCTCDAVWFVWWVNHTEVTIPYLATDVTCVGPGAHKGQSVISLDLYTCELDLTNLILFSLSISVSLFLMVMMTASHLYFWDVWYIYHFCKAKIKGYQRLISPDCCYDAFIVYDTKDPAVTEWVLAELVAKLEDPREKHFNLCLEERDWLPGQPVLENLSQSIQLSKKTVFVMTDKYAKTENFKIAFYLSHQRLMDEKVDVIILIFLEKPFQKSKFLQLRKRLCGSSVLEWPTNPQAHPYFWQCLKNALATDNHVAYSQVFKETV
Test: HEK Cell Assay (TLR7/NFKb reporter, Steady-Glo luciferase readout)
Assay type: cell-based
Details: 30 min compound preincubation, then R*48 agonist for 5 hours, read-out: Potency
Summary of the method: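 Steady-Glo luminescence after 5 h stimulation with R*48 agonist, following 30 min compound preincubation. Assay run in HEK cells carrying a TLR7/NFKb luciferase reporter, plated at 5000 cells/well and grown 24 h at 37° C (10% CO2) before treatment.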

`C[C@H]1C[C@@H](NC(=O)C(O)C2CC2)CN(c2ccc(C(F)(F)F)c3ncccc23)C1` (stereo partly drawn) [Compound 515, 2-Cyclopropyl-2-hydroxy-N-[(3R,5S)-5-methyl-1-(8-trifluoromethyl-quinolin-5-yl)-piperidin-3-yl]-acetamide] and `CC(O)C(=O)N[C@@H]1C[C@H](C)CN(c2ccc(C(F)(F)F)c3ncccc23)C1` (stereo partly drawn) [Compound 278, 2-hydroxy-N-[(3R,5S)-5-methyl-1-[8-(trifluoromethyl)quinolin-5-yl]piperidin-3-yl]propanamide] cannot be ordered by IC50: < 1000 nM for the first, < 1000 nM for the second.

First: C[C@@H]1CN(c2ccc(C#N)c3nccnc23)C[C@H](CN2CCC(N3CCOCC3)CC2)O1 [Compound 467, 8-[(2R,6S)-2-methyl-6-{[4-(morpholin-4-yl)piperidin-1-yl]methyl}morpholin-4-yl]quinoxaline-5-carbonitrile]
Second: CC1(C)C[C@@H](NC(=O)CN2CCOCC2)CN(c2ccc(C#N)c3nccnc23)C1 [Compound 214, N-[(3R)-1-(8-cyanoquinoxalin-5-yl)-5,5-dimethylpiperidin-3-yl]-2-(morpholin-4-yl)acetamide]
The IC50 of the first is lower: < 1000 nM for the first, 1000 to 10000 nM for the second.

`C[C@H]1C[C@@H](NC(=O)CC(C)(C)O)CN(c2ccc(C(F)(F)F)c3ncccc23)C1` [Compound 485] and `C[C@H]1C[C@@H](NC(=O)C2(O)CC2)CN(c2ccc(C(F)(F)F)c3ncccc23)C1` [Compound 241, 1-hydroxy-N-[(3R,5S)-5-methyl-1-[8-(trifluoromethyl)quinolin-5-yl]piperidin-3-yl]cyclopropane-1-carboxamide] cannot be ordered by IC50: < 1000 nM for the first, < 1000 nM for the second.

First: CCN(C)CCNC(=O)C1CCN(c2ccc(C(F)(F)F)c3ncccc23)CC1 [Compound 436, 1-(8-Trifluoromethyl-quinolin-5-yl)-piperidine-4-carboxylic acid [2-(ethyl-methyl-amino)-ethyl]-amide]
Second: CCN(CC)CCNC(=O)C1CCN(c2ccc(C#N)c3ncncc23)CC1 [Compound 397, 1-(8-Cyano-quinazolin-5-yl)-piperidine-4-carboxylic acid (2-diethylamino-ethyl)-amide]
The IC50 of the first is lower: < 1000 nM for the first, 1000 to 10000 nM for the second. The first is the more potent here.

`C[C@H]1C[C@@H](NC(=O)CC2CCN(C)C2)CN(c2ccc(C#N)c3nccnc23)C1` (stereo partly drawn) [Compound 269, N-[(3R,5S)-1-(8-cyanoquinoxalin-5-yl)-5-methylpiperidin-3-yl]-2-(1-methylpyrrolidin-3-yl)acetamide] and `CN1CCC(CC(=O)NC2CN(c3ccc(C#N)c4nccnc34)CC(F)(F)C2)CC1` (single isomer, unassigned) [Compound 523] cannot be ordered by IC50: < 1000 nM for the first, < 1000 nM for the second.

First: c1ccc2c(N3CCC(CNCCN4CCOCC4)CC3)ccnc2c1 [Compound 7, 2-morpholino-N-((1-(quinolin-4-yl)piperidin-4-yl)methyl)ethanamine]
Second: CN1CCCC1C(=O)NCC1CCN(c2ccc(C#N)c3ncccc23)CC1 (centres unmarked) [Compound 418, 1-Methyl-pyrrolidine-2-carboxylic acid [1-(8-cyano-quinolin-5-yl)-piperidin-4-ylmethyl]-amide]
The IC50 of the first is higher: > 10000 nM for the first, < 1000 nM for the second. The second is the more potent here.

First: C[C@H]1C[C@@H](NC(=O)CN2CC(N)C2)CN(c2ccc(C(F)F)c3nccnc23)C1 [Compound 365, 2-(3-aminoazetidin-1-yl)-N-[(3R,5S)-1-[8-(difluoromethyl)quinoxalin-5-yl]-5-methylpiperidin-3-yl]acetamide]
Second: C[C@H]1C[C@@H](NC(=O)CO)CN(c2ccc(C(F)(F)F)c3nccnc23)C1 [Compound 250, 2-hydroxy-N-[(3R,5S)-5-methyl-1-[8-(trifluoromethyl)quinoxalin-5-yl]piperidin-3-yl]acetamide]
The IC50 of the first is higher: 1000 to 10000 nM for the first, < 1000 nM for the second. The second is the more potent here.

`COCCN[C@H]1CN(c2ccc(C#N)c3nccnc23)CC(C)(C)C1` [Compound 216, 8-[(5R)-5-[(2-methoxyethyl)amino]-3,3-dimethylpiperidin-1-yl]quinoxaline-5-carbonitrile] and `COCCN[C@@H]1C[C@H](C)CN(c2ccc(C#N)c3nccnc23)C1` [Compound 19, 8-((3R,5S)-3-(2-methoxyethylamino)-5-methylpiperidin-1-yl)quinoxaline-5-carbonitrile] cannot be ordered by IC50: < 1000 nM for the first, < 1000 nM for the second.

First: CN(C(=O)CN1CCOCC1)[C@H]1C[C@@H](C2CC2)CN(c2ccc(F)c3ncccc23)C1 (racemic) [Compound 368, cis-N-[5-cyclopropyl-1-(8-fluoroquinolin-5-yl)piperidin-3-yl]-N-methyl-2-(morpholin-4-yl)acetamide]
Second: C[C@H]1C[C@@H](N)CN(c2ccc(F)c3ncccc23)C1 [Compound 341, (3R,5S)-1-(8-fluoroquinolin-5-yl)-5-methylpiperidin-3-amine]
The IC50 of the first is higher: > 10000 nM for the first, < 1000 nM for the second.

`CN1CCC(CNC(=O)C2CN(c3ccc(C#N)c4ncccc34)CC(F)(F)C2)CC1` (single isomer, unassigned) [Compound 546] and `N#Cc1ccc(N2CC(N)CC(F)(F)C2)c2cccnc12` (centres unmarked) [Compound 423, 5-(5-Amino-3,3-difluoro-piperidin-1-yl)-quinoline-8-carbonitrile hydrochloride] cannot be ordered by IC50: < 1000 nM for the first, < 1000 nM for the second.

`CCN(CC)C(=O)CCC(=O)N[C@@H]1C[C@H](C(F)(F)F)CN(c2ccc(C#N)c3ncccc23)C1` [Compound 579, N-[(3R,5S)-1-(8-Cyano-quinolin-5-yl)-5-trifluoromethyl-piperidin-3-yl]-N′,N′-diethyl-succinamide] and `N#Cc1ccc(N2C[C@@H](NC(=O)CCC(N)=O)C[C@@H](C(F)(F)F)C2)c2cccnc12` (relative stereo) [Compound 480, cis-N-[1-(8-Cyano-quinolin-5-yl)-5-trifluoromethyl-piperidin-3-yl]-succinamide] fall in the same range of IC50: 1000 to 10000 nM for the first, 1000 to 10000 nM for the second.

First: COc1ccc(N2C[C@@H](C)C[C@@H](NC(=O)CC(C)(C)C)C2)c2cccnc12 [Compound 189, N-[(3R,5S)-1-(8-methoxyquinolin-5-yl)-5-methylpiperidin-3-yl]-3,3-dimethylbutanamide]
Second: C[C@H]1C[C@@H](NC(=O)CO)CN(c2ccc(Cl)c3ncccc23)C1 [Compound 263, N-[(3R,5S)-1-(8-chloroquinolin-5-yl)-5-methylpiperidin-3-yl]-2-hydroxyacetamide]
The IC50 of the first is higher: 1000 to 10000 nM for the first, < 1000 nM for the second.

Compared with `CN(C)CC(=O)NCC1CCN(c2ccnc3nccnc23)CC1` [Compound 394, 2-Dimethylamino-N-(1-pyrido[2,3-b]pyrazin-8-yl-piperidin-4-ylmethyl)-acetamide], `C[C@H]1C[C@@H](NC(=O)CN(C)CCO)CN(c2ccnc3nccnc23)C1` [Compound 145, 2-[(2-hydroxyethyl)(methyl)amino]-N-[(3R,5S)-5-methyl-1-[pyrido[2,3-b]pyrazin-8-yl]piperidin-3-yl]acetamide] is higher in IC50: 1000 to 10000 nM for the first, > 10000 nM for the second. The first is the more potent here.

Compared with `C[C@H]1C[C@@H](NC(=O)C2CC(F)(F)C2)CN(c2ccc(C(F)F)c3ncccc23)C1` [Compound 317, N-[(3R,5S)-1-[8-(difluoromethyl)quinolin-5-yl]-5-methylpiperidin-3-yl]-3,3-difluorocyclobutane-1-carboxamide], `C[C@H]1C[C@@H](NC(=O)CN2CCC(C)(C)C2)CN(c2ccc(C(F)(F)F)c3ncccc23)C1` [Compound 573, 2-(3,3-Dimethyl-pyrrolidin-1-yl)-N-[(3R,5S)-5-methyl-1-(8-trifluoromethyl-quinolin-5-yl)-piperidin-3-yl]-acetamide] is lower in IC50: > 10000 nM for the first, < 1000 nM for the second. The second is the more potent here.

`C[C@H]1C[C@@H](NC(=O)[C@@H](N)c2ccccc2)CN(c2ccc(C#N)c3nccnc23)C1` [Compound 117, (2S)-2-amino-N-[(3R,5S)-1-(8-cyanoquinoxalin-5-yl)-5-methylpiperidin-3-yl]-2-phenylacetamide] and `CC(C)[C@@H](N)C(=O)N[C@@H]1C[C@H](C)CN(c2ccc(C#N)c3nccnc23)C1` [Compound 102, (2R)-2-amino-N-[(3R,5S)-1-(8-cyanoquinoxalin-5-yl)-5-methylpiperidin-3-yl]-3-methylbutanamide] cannot be ordered by IC50: < 1000 nM for the first, < 1000 nM for the second.

Compared with `C[C@H]1C[C@@H](N)CN(c2ccc(C(F)(F)F)c3ncccc23)C1` [Compound 66, (3R,5S)-5-methyl-1-[8-(trifluoromethyl)quinolin-5-yl]piperidin-3-amine], `O=C(NC1CN(c2ccc(C(F)(F)F)c3ncccc23)CC(F)(F)C1)C(O)C1CC1` (centres unmarked) [Compound 513, 2-Cyclopropyl-N-[5,5-difluoro-1-(8-trifluoromethyl-quinolin-5-yl)-piperidin-3-yl]-2-hydroxy-acetamide] is higher in IC50: < 1000 nM for the first, 1000 to 10000 nM for the second.

Reference: US10947213B1 (Merck Patent GmbH, priority 2015, dated 2021)
